Measurements: patent publication US6043283A, “Tyramine compounds and their neuronal effects” (priority 1997, dated 2000)
pEC50, pIC50: −log10 of the molar value. Entries after “also recorded” stand apart in the source; their conditions may differ. Where two headings read alike, the source gives them in different places.

Columns and labels:
[1] = tested on: scavenger receptor; assay: inhibition of Spheresmal-BSA binding to microglia; design: species or system rat
Method: (§1) Spheresmal-BSA (which bind to scavenger receptors) or SpheresAβ1-42 were incubated with microglia for 4 hours following pre-treatment of cells with trypsin (5000 units/ml at 37° C. for 60 min followed by inactivation with soybean trypsin inhibitor), with heparinase (heparin lyase EC 4.2.2.7; two consecutive treatments each of 0.01 units/ml for 60 min), or with chondroitinase ABC (chondroitin ABC lyase EC 4.3.3.4; two consecutive treatments each of 0.02 units/ml for 60 min). […] Microglia mixed with hippocampal neurons were treated with combinations of β-D-xyloside (1 mm), heparinase (0.02 units/ml), or chondroitinase (0.04 units/ml) and then exposed to plaques.
Each well then received 250,000 SpheresAβ1-42 or Spheresmal-BSA in the presence or absence of Aβ peptides, GAGs, or scavenger receptor ligands. Binding assays were carried out at 37° C. for 4 hours after which coverslips were dipped 10 times in phosphate buffer and fixed with 4% buffered paraformaldehyde. Microsphere adherence to cells was scored at 200 magnification with phase/fluorescence microscopy. Data, expressed as % inhibition of sphere binding, was calculated from total number of spheres per field noted for control cultures receiving spheres only. Values are based upon at least 3 coverslips from 2 independent experiments. […]

[2] = tested on: microglia; assay: inhibition of SpheresAβ1-42 binding to microglia; design: species or system rat; settings: for inhibition of SpheresAβ1-42 binding by peptides: 10 μmoles/l, 4 hours, 37° C.; for SpheresAβ1-42 binding after enzymatic treatment of microglia: trypsin 5000 units/ml, heparinase 0.01 units/ml, chondroitinase ABC 0.02 units/ml
Method: as §1
Each well then received 250,000 SpheresAβ1-42 or Spheresmal-BSA in the presence or absence of Aβ peptides, GAGs, or scavenger receptor ligands. Binding assays were carried out at 37° C. for 4 hours after which coverslips were dipped 10 times in phosphate buffer and fixed with 4% buffered paraformaldehyde. Microsphere adherence to cells was scored at 200 magnification with phase/fluorescence microscopy. Data, expressed as % inhibition of sphere binding, was calculated from total number of spheres per field noted for control cultures receiving spheres only. Values are based upon at least 3 coverslips from 2 independent experiments. […] Washed spheres were resuspended in 0.2 M borate buffer (pH 8.5) in the presence of 300 μg Aβ or 400 μg BSA in 6% DMSO. After overnight mixing at room temperature, the spheres were washed extensively and blocked by 1 M glycine (pH 8.0) for 30 minutes.

[3] = tested on: rat microglia / hippocampal neurons; settings: for induction of neurotoxic microglia / neuron killing: rat microglia, mostly 1 μmole/l
[4] = tested on: human microglia; assay: induction of neuron-killing human microglia; assay type: cell-based; settings: 1 μmole/liter synthetic peptides
[5] = tested on: rat microglia; assay: binding of Aβ-coupled microspheres to microglia; settings: 4 hours at 37° C. (72 h in FIG. 23)
[6] = tested on: human microglia; assay: nitrite/nitrate production, human microglia; assay type: cell-based
Method: Nitrites and nitrates, stable byproducts of nitric oxide synthetase (NOS) served as markers for nitric oxide (NO) synthesis (Ignarro, 1990). […]; for 24 to 72 hours incubated in the presence of neuritic/core plaques or Aβ peptides) were measured by the Griess method set forth by Beckman et al., 1990 against a standard curve ranging from 0.1 to 50.0 μM nitrate.

[7] = assay type: physicochemical; settings: chemically defined culture media, 37° C.; Table 2
Excerpt: Solubility of peptides is described for chemicallydefined culture media a […]

[8] = tested on: Aβ1-42-stimulated microglia; assay type: cell-based, rat; settings: for blocking of Aβ1-42 induced microglial neurotoxicity by peptides: 10 μmoles/liter peptide, 1 μmole/liter Aβ1-42; for pIC50: read-out: ED50 (blocking of Aβ1-42 induced neurotoxicity), FIG. 16B
Excerpt: (§2) Briefly, hippocampal cells obtained from embryonic stage 18 rat fetuses were dispersed mechanically in the presence of 0.125% trypsin and plated onto poly-L-lysine coated glass coverslips in 24 well plates at 250,000 cells per well (resulting in adhering cell densities of about 1250 cells per mm^2) in chemically-defined N2 culture media containing 5% fetal bovine serum. Gradual reduction of serum began on day 10 in vitro with daily 1:1 volume replacements with chemically-defined media, until a final concentration of 0.6% serum was achieved. […] In order to eliminate microglia, cultures were exposed to saporin (sap; a ribosome-inactivating protein; Davis and Wiley, 1989) coupled to acetylated LDL (ac-LDL) at a concentration of 10 μg/ml for 12 hours. […] Cultures depleted of microglia were then exposed to test substances in the presence or absence of exogenous microglia (100,000 cells per culture). […] Controls included cultures without saporin-treatment, cultures without test substances, and cultures with test substances but lacking microglia.
(§3) On day 14 of culture, immediately following saporin treatment, test substances were added to the hippocampal cultures. Synthetic peptide were supplied as 1 mM stock solutions in 0.1 M phosphate buffered saline, pH 7.2, stored for at least 1 week at 4° C. before use. After 72 hours incubation, the cultures were fixed in 4% paraformaldehyde at room temperature for 18 hours and immuno-stained by overnight incubation with a mixture of anti-neurofilament antibodies (NF; SMI-311, 1:600; Stemberger Monoclonals, Inc.) plus anti-MAP-2 (Boehringer Mannheim, 184959; 1:600) at 4° C. in the presence of 2% horse serum and 0.3% triton X-100 to delineate both neuronal cell bodies and neurites. Astroglia were visualized using sheep anti-glial fibrillary acidic protein (GFAP, Sigma) as described by Giulian et al., 1989. Finally, to label all cell nuclei, the coverslips were exposed to 0.01% bisbenzimide (Hoechst 33258; Sigma) in PBS, pH 6.9, and rinsed in distilled water and mounted in glycerin. Immuno-labeled cells per field and nuclei per field were scored at 200X magnification using fluorescence microscopy. Data were expressed as % mean survival expressed in terms of parallel untreated control cultures after scoring at least 20 randomly selected fields for each of 3 coverslips.

[9] = tested on: reactive microglia in rat neocortex; assay: brain inflammatory response after infusion into neocortex of adult rat; assay type: in vivo; settings: 0.5 nmoles Aβ1-42, co-infusion of 1.0 nmole peptide; 5 days
[10] = tested on: plaque-stimulated microglia; assay: blocking of plaque-induced microglial neurotoxicity; assay type: cell-based, rat; settings: FIG. 16C
[11] = tested on: NTox; assay: protection of neurons against isolated NTox applied directly; assay type: cell-based; settings: isolated NTox; FIGS. 13, 32
Excerpt: FIG. 32 is a graph showing the specificity of tyramine compounds to NTox. […].
Initial studies to characterize the neuroprotective effect of tyramine compounds employed microglia-neuron co-culture assays in the presence of Aβ or isolated senile plaques. Inhibition of neuron killing in […]--inhibition of microglial activation by Aβ or plaques; inhibition of NTox production and release by microglia; or inhibition of action of NTox upon neurons. […] Effective doses in the low nmolar range show the tyramine compounds to be very potent agents compared with low μmolar range of other neuroprotective drugs under development for neurological disorders.

[12] = tested on: quinolinic acid (QUIN); assay: protection of neurons against quinolinic acid; assay type: cell-based; settings: QUIN (100 μM in FIG. 13)
Excerpt: FIG. 32 is a graph showing the specificity of tyramine compounds to NTox. […]

[13] = tested on: NTox released by Aβ1-42-stimulated microglia (neuron killing); assay: cells; assay type: cell-based, rat
Excerpt: . Briefly, hippocampal cells obtained from embryonic stage 18 rat fetuses were dispersed mechanically in the presence of 0.125% trypsin and plated onto poly-L-lysine coated glass coverslips in 24 well plates at 250,000 cells per well (resulting in adhering cell densities of about 1250 cells per mm^2) in chemically-defined N2 culture media containing 5% fetal bovine serum. Gradual reduction of serum began on day 10 in vitro with daily 1:1 volume replacements with chemically-defined media, until a final concentration of 0.6% serum was achieved. […]; see FIG. 18). In order to eliminate microglia, cultures were exposed to saporin (sap; a ribosome-inactivating protein; Davis and Wiley, 1989) coupled to acetylated LDL (ac-LDL) at a concentration of 10 μg/ml for 12 hours. […] Cultures depleted of microglia were then exposed to test substances in the presence or absence of exogenous microglia (100,000 cells per culture). […]. Controls included cultures without saporin-treatment, cultures without test substances, and cultures with test substances but lacking microglia.
as §3
The procedures described above and by Giulian et al, 1996, provided for the identification of tyramine compounds as therapeutic agents for neurodegenerative diseases or disorders including, for example, Alzheimer's disease. Cells from the brain of fetal rats were grown in tissue cultures. Microglial populations within the cultures were controlled following the method described in Example 5 above. Known amounts of Aβ peptides coupled to microspheres were added to the culture. The Aβ spheres stimulated the microglia to release NTox, which in turn destroyed the neurons. The neurons in the cultures were monitored for survival by immuno-staining.
Generally, drug assays involve the addition of known concentrations of a test agent over a range of concentrations. After 72 hours, the experiment is stopped and the neurons are identified by immuno-staining. The data is expressed as % neuronal survival […]. Dose response curves are then used to estimate Effective Dose50 % (ED50) of neuroprotective agents. […].
In this experiment, about 65% of the neurons were destroyed by the Aβ-stimulated microglia. […] Other tyramine compounds, including tyrosine esters, were neuroprotective (FIG. 30).
Following the methods described herein, numerous compounds were examined to determine their neuroprotective activity. […]

[14] = tested on: hippocampal neurons; assay type: cell-based, rat; settings: absence of microglia
Excerpt: as §2, §3

[15] = tested on: rat microglia; assay type: binding; settings: 6 hours, 37° C.
Method: Synthetic Aβ peptides were linked to Sepharose beads (Pharmacia) in coupling buffer (0.1 M NaHCO3, 0.5 M NaCl, pH 8.3) containing 20% DMSO. This solution was combined with an appropriate volume of CNBr-activated Sepharose 4B (10 mg protein per ml of bead; Pharmacia protocol) and mixed overnight on a platform mixer at room temperature. Remaining active groups on the beads were blocked by 1.0 M glycine and excess uncoupled peptides removed from this bead-peptide complex by washing with three cycles of alternating pH (0.1 M acetate buffer, pH 4.0, followed by 0.1 M Tris-HCL buffer, pH 8.0, each buffer containing 0.5 M NaCl). Coupled beads (10^4 per ml) were placed in 35 mm culture dishes covered with 250,000 adhering microglia at 37° C. in 1.5 ml N2 medium in accordance with the procedure of Giulian et al., 1995a. The numbers of microglia which detached from the plate and bound to coupled beads were determined at the end of a 6 hour incubation period by inverted phase microscopy with 100 beads scored from each of three sister cultures. Glycine and bovine serum albumin (BSA) coupled beads were used as controls.

In the case of dextran sulfate, the “inhibition of Spheresmal-BSA binding by ligands” value ([1]; dextran sulfate 500 μg/ml, ac-LDL 200 μg/ml, Aβ1-16 10 μmole/l) was “blocked” and the “inhibition of SpheresAβ1-42 binding by GAGs and scavenger receptor ligands” value ([2]; heparin sulfate 50 μg/ml, dextran sulfate 500 μg/ml, ac-LDL 200 μg/ml) was “only heparin sulfate blocked; also recorded: not similar compounds”.

With “Aβ1-40: synthetic human β-amyloid peptide 1-40” the “neuron killing, microglia separated from neurons (no contact)” value [3] was “stimulated microglia to destroy neurons”, the “ED50 (neuron killing via microglia)” value ([3]; 500 microglia per mm^2) was roughly 80 nM and the “induction of neurotoxic microglia / neuron killing” value ([3]; listed as A1-40) was “neuron killing could be induced”. The killing of neurons ([3]; rat, hippocampal neurons, 72 h, 1 µM) was 70-80%, the “induction of neurotoxic human microglia” value [4] was “very potent inducers of neurotoxic human microglia; also recorded: stimulated release of neurotoxin from human microglia” and the “binding of peptide-coupled microspheres to microglia” value [5] was “marked glial binding”. For the same compound, the “release of nitrate or nitrite, human microglia” value [6] was “did not bring about release of nitrate or nitrites” and the Solubility [7] was “moderately soluble”.

With “Aβ1-5: Aβ peptide residues 1-5 (DAEFR; Amyloid-beta protein 42; UniProt P05067 672-676, looked up, fragment)” the “binding of peptide-coupled microspheres to microglia” value [5] was “did not”, the “blocking of Aβ1-42 induced microglial neurotoxicity by peptides” value [8] was “did not” and the “inhibition of SpheresAβ1-42 binding by peptides” value [2] was “did not”. The “local brain inflammatory response” value [9] was “did not alter inflammation”.

With “Aβ13-16: residues His13, His14, Gln15, and Lys16 (the HHQK domain within Aβ) (Amyloid-beta protein 42; UniProt P05067 684-687, looked up, fragment)” the “blocking of plaque-induced microglial toxicity by peptides” value [10] was “blocked plaque-induced toxicity in vitro”, the “blocking of Aβ1-42 induced microglial neurotoxicity by peptides” value [8] was “blocked neurotoxin production” and the “blocking of Aβ1-42 induced microglial neurotoxicity by peptides” value ([8]; listed as HHQK) was “one of the most potent plaque suppressor peptides identified”. The pIC50 [8] was roughly 7.52 and the “local brain inflammatory response” value [9] was “blocks the interaction of Aβ1-42 with microglia in vivo and reduces the local brain inflammatory response; also recorded: markedly reduced”.

With trypsin the “Spheresmal-BSA binding after enzymatic treatment of microglia” value ([1]; trypsin 5000 units/ml, chondroitinase ABC 0.02 units/ml) was “reduced by trypsin”, the “SpheresAβ1-42 binding after enzymatic treatment of microglia” value [2] was “reduced by trypsin” and the “SpheresAβ1-42 binding after enzymatic treatment of microglia” value ([2]; listed as trypsinization) was “markedly reduced”.

For `NCCc1ccc(O)cc1` [tyramine], the “inhibition of killing action of NTox applied to neurons” value [11] was “prevented neuronal injury”, the “protection against quinolinic acid” value [12] was “did not occur with quinolinic acid” and the protective effect ([13]; 10 μM, 72 hours, FIG. 30) was “completely prevented neuron death”. The “neuroprotective activity (structure/function)” value ([13]; Example 14) was “enhance neuroprotective effects” and the pEC50 ([13]; Rattus norvegicus, Aβ-stimulated microglia, 72 h, FIG. 31, read-out: ED50 (neuroprotection)) was roughly 6.70.

In the case of Aβ1-28: Aβ peptide residues 1-28, the “induction of neurotoxic microglia / neuron killing” value ([3]; listed as 1-28) was “inactive”, the “induction of neurotoxic human microglia” value [4] was “inactive” and the “direct neurotoxicity without microglia” value [14] was “did not produce neurotoxicity”. For the same compound, the “blocking of Aβ1-42 induced microglial neurotoxicity by peptides” value [8] was “blocked neurotoxin production”, the pIC50 [8] was 6.60 and the “inhibition of SpheresAβ1-42 binding by peptides” value [2] was “effectively prevented”. The Solubility [7] was “soluble” and the “microglial adherence to coupled Sepharose beads” value [15] was “promoted cell binding; also recorded: promoted bead binding”.
